Reference: ChEMBL document CHEMBL5543082, “In vitro and in vivo anti-pigmentation effects of 2-mercaptobenzimidazoles as nanomolar tyrosinase inhibitors on mammalian cells and zebrafish embryos: Preparation of pigment-free zebrafish embryos” (Eur J Med Chem, 2024)
One block for each molecule: values may come before it. The source made the active and inactive calls. The rule behind the calls is not given here.

Experiments:
[1] = system: B16-F10; assay: Cytotoxicity against mouse B16-F10 cells at <= 20 uM after 72 hrs by EZ-Cytox solution based microplate reader assay; type: toxicity, cell-based; settings: b16-f10, 72 h
[2] = system: HaCaT; assay: Cytotoxicity against human HaCaT cells at <= 20 uM after 24 hrs by EZ-Cytox solution based microplate reader assay; type: toxicity, cell-based
[3] = biological target: T1, Mushroom tyrosinase (Agaricus bisporus, UniProt O42713+Q00024+C7FF04+C7FF05); assay: Inhibition of mushroom tyrosinase diphenolase activity using L-dopa as substrate incubated for 0.5 hrs; type: protein assay
[4] = biological target: T1, Mushroom tyrosinase; assay: Inhibition of mushroom tyrosinase monophenolase activity using L-tyrosine as substrate incubated for 0.5 hrs; type: protein assay
[5] = system: Danio rerio; assay: Depigmentation activity in zebrafish embryos administered at 21 hpf and measured after 69 hpf; type: functional, organism-based; settings: dose 0.01-0.4 mM, time […]
[6] = Antioxidant activity assessed as peroxynitrite scavenging activity by measuring rhodamine 123 fluorescence intensity at 50 uM in presence of SIN-1; type: functional
[7] = Antioxidant activity assessed as reduction in FeSO4 induced hydroxyl radical production at 40 uM; type: functional
[8] = Antioxidant activity assessed as reduction in H2O2 induced hydroxyl radical production at 40 uM; type: functional
[9] = biological target: T2, Tyrosinase (Mus musculus) (UniProt P11344); assay: Inhibition of tyrosinase activity in mouse B16-F10 cells preincubated for 1 hr followed by alpha-MSH and IBMX addition and measured after 72 hrs; type: cell-based; settings: time 73.0 hrs
T2 sequence (whole entry): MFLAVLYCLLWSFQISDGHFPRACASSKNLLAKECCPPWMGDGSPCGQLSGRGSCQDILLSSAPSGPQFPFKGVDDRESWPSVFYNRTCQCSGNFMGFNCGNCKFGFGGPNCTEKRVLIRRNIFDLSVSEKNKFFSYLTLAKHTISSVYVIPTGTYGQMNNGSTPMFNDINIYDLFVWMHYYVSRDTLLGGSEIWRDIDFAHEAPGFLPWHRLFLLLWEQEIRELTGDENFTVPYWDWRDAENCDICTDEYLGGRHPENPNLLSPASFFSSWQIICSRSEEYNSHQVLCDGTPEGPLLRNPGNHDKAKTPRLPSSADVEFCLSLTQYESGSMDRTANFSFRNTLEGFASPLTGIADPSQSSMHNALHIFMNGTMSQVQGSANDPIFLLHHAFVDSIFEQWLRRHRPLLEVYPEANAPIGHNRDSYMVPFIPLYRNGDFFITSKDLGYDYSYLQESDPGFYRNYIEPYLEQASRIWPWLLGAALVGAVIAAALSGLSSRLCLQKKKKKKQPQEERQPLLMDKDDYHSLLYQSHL

[10] = system: B16-F10; assay: Inhibition of melanin production in mouse B16-F10 cells preincubated for 1 hr followed by alpha-MSH and IBMX addition and measured after 72 hrs; type: functional, cell-based; settings: dose 5-20 µM, time 73.0 hrs

Structure (SMILES): Cc1ccc2[nH]c(S)nc2c1
Activity [1]: Non-Toxic
Activity [2]: Non-Toxic

IC50 [3]: 40 nM
IC50 [4]: 110 nM
Structure (SMILES): N#Cc1ccc2[nH]c(S)nc2c1
Activity [5]: Dose-Dependent Effect
Activity [6]: Active
Activity [7]: inactive
Activity [8]: inactive

Structure (SMILES): Fc1ccc2[nH]c(S)nc2c1
Activity [5]: Dose-Dependent Effect
Activity [7]: inactive
Activity [8]: inactive

inhibition [9]: Dose-Dependent Effect
Structure (SMILES): Sc1nc2cc(Cl)ccc2[nH]1
inhibition [10]: Dose-Dependent Effect
Activity [1]: Non-Toxic
Activity [2]: Non-Toxic
Activity [5]: Dose-Dependent Effect
Activity [6]: Active
Activity [7]: inactive
Activity [8]: inactive

inhibition [9]: Dose-Dependent Effect
IC50 [3]: 20 nM
IC50 [4]: 100 nM
Structure (SMILES): O=C(c1ccccc1)c1ccc2[nH]c(S)nc2c1
inhibition [10]: Dose-Dependent Effect
Activity [5]: Dose-Dependent Effect
Activity [6]: Active
Activity [7]: inactive
Activity [8]: inactive

Structure (SMILES): CC(C)(S)[C@@H](N)C(=O)O
Activity [6]: Active

inhibition [9]: Dose-Dependent Effect
Structure (SMILES): Cc1cc2nc(S)[nH]c2cc1C
inhibition [10]: Dose-Dependent Effect
Activity [1]: Non-Toxic
Activity [2]: Non-Toxic
Activity [5]: Dose-Dependent Effect
Activity [7]: inactive
Activity [8]: inactive

inhibition [9]: Dose-Dependent Effect
Structure (SMILES): Cc1ccc2[nH]c(=S)[nH]c2c1
inhibition [10]: Dose-Dependent Effect
Activity [5]: Dose-Dependent Effect
Activity [7]: inactive
Activity [8]: inactive

IC50 [3]: 740 nM
IC50 [4]: 5780 nM
Structure (SMILES): Cc1cccc2[nH]c(=S)[nH]c12
Activity [5]: Dose-Dependent Effect
Activity [7]: inactive
Activity [8]: inactive

Structure (SMILES): O=[N+]([O-])c1ccc2[nH]c(S)nc2c1
Activity [5]: Dose-Dependent Effect
Activity [7]: inactive
Activity [8]: inactive

Structure (SMILES): Sc1nc2ccccc2[nH]1
Activity [5]: Dose-Dependent Effect
Activity [7]: inactive
Activity [8]: inactive

Structure (SMILES): COc1ccc2[nH]c(S)nc2c1
Activity [5]: Dose-Dependent Effect
Activity [7]: inactive
Activity [8]: inactive

Structure (SMILES): Cc1c(C)c2c(c(C)c1O)CCC(C)(C(=O)O)O2 (centres undefined)
Activity [6]: Active
Activity [7]: Active
Activity [8]: Active

Structure (SMILES): O=C(c1ccccc1)c1ccc2[nH]c(=S)[nH]c2c1
Activity [1]: Non-Toxic
Activity [2]: Non-Toxic
